# Key:
# Assay type in all cases: in vivo
# rice (Oryza sativa) = test: Test C flooded paddy test plant response; conditions: Flood, 250 g ai/ha; scale of 0 to 100 where 0 is no effect and 100 is complete control; 13 to 15 days
# Summary of the method: (§1)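 Scale 0 (no effect) to 100 (complete control), assigned visually versus controls after 13–15 d greenhouse. Application: directly to paddy water, 3 cm flood depth kept constant, 2-leaf stage.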
# [1] = tested on: ducksalad (Heteranthera limosa); test: Test C flooded paddy test plant response; conditions: Flood, 250 g ai/ha; scale of 0 to 100 where 0 is no effect and 100 is complete control; 13 to 15 days
# Summary of the method: as §1
# [2] = tested on: barnyardgrass (Echinochloa crus-galli); test: Test C flooded paddy test plant response; conditions: Flood, 250 g ai/ha; scale of 0 to 100 where 0 is no effect and 100 is complete control; 13 to 15 days
# Summary of the method: as §1
# [3] = tested on: small-flower umbrella sedge (Cyperus difformis); test: Test C flooded paddy test plant response; conditions: Flood, 250 g ai/ha; scale of 0 to 100 where 0 is no effect and 100 is complete control; 13 to 15 days
# Summary of the method: as §1
# kochia (Kochia scoparia) [4] = test: Test D postemergence plant response; conditions: for Kochia plant response rating: scale 0 to 100 (0 no effect, 100 complete control); for Plant response rating, Kochia: scale 0 to 100, 0 no effect, 100 complete control
# Summary of the method: (§2)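 Visual 0–100 rating vs controls (0 = no effect, 100 = complete control), scored 13–15 d after postemergence spray. Plants 1- to 4-leaf stage (2–18 cm), potted in peat/vermiculite mix, kept in greenhouse.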
# wild oat (Avena fatua) = test: Test D postemergence plant response; conditions: for Oat, Wild plant response rating: scale 0 to 100 (0 no effect, 100 complete control); for Plant response rating, Oat, Wild: scale 0 to 100, 0 no effect, 100 complete control
# Summary of the method: as §2
# [5] = tested on: chickweed (common chickweed, Stellaria media); test: Test D postemergence plant response; conditions: for Chickweed plant response rating: scale 0 to 100 (0 no effect, 100 complete control); for Plant response rating, Chickweed: scale 0 to 100, 0 no effect, 100 complete control
# Summary of the method: as §2
# kochia (Kochia scoparia) [6] = test: Test B pre-/postemergence plant response
# Summary of the method: (§3)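 Evaluation is visual, about 10 days after application, rating injury from 0 (none) to 100 (complete control) relative to untreated controls. Application was a preemergence soil spray on seeded pots or a postemergence spray on one- to two-leaf plants.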
# [7] = tested on: pigweed (Amaranthus retroflexus); test: Test B pre-/postemergence plant response
# Summary of the method: as §3
# [8] = tested on: wheat (Triticum aestivum); test: Test B pre-/postemergence plant response
# Summary of the method: as §3
# [9] = tested on: giant foxtail (Setaria faberii); test: Test B pre-/postemergence plant response
# Summary of the method: as §3
# [10] = tested on: ragweed (common ragweed, Ambrosia elatior); test: Test B pre-/postemergence plant response
# Summary of the method: as §3
# [11] = tested on: Italian ryegrass (Lolium multiflorum); test: Test B pre-/postemergence plant response
# Summary of the method: as §3
# corn (Zea mays) = test: Test B pre-/postemergence plant response
# Summary of the method: as §3
# [12] = tested on: barnyardgrass (Echinochloa crus-galli); test: Test B pre-/postemergence plant response
# Summary of the method: as §3
# [13] = tested on: blackgrass (Alopecurus myosuroides); test: Test B postemergence plant response
# Summary of the method: (§4)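 Values are visual control ratings (0 to 100) recorded approximately 10 days after postemergence application to greenhouse-grown plants of 2 to 10 cm, one- to two-leaf stage, each judged against untreated controls.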
# [14] = tested on: galium (catchweed bedstraw, Galium aparine); test: Test B postemergence plant response
# Summary of the method: as §4
# [15] = 125 g ai/ha, postemergence, 0 to 100 scale, 0 no effect, 100 complete control
# [16] = Postemergence, 500 g ai/ha, 0 to 100 scale (0 no effect, 100 complete control)
# [17] = Preemergence, 125 g ai/ha, 0 to 100 scale where 0 is no effect and 100 is complete control
# [18] = Preemergence, 500 g ai/ha, 0 to 100 scale where 0 is no effect and 100 is complete control
structure (smiles),measurement,setting,value
Cn1nnc(-c2ccccc2Oc2ncc(Br)cn2)n1 [Compound 50],Rice plant response rating,rice (Oryza sativa),0
same,Ducksalad plant response rating,[1],30
same,Barnyardgrass plant response rating,[2],0
same,"Sedge, Umbrella plant response rating",[3],0
same,Kochia plant response rating,kochia (Kochia scoparia) [4]; 16 g ai/ha,0
same,Kochia plant response rating,kochia (Kochia scoparia) [4]; 31 g ai/ha,0
same,"Plant response rating, Kochia",kochia (Kochia scoparia) [4]; 62 g ai/ha,5
same,"Plant response rating, Kochia",kochia (Kochia scoparia) [4]; 125 g ai/ha,15
same,"Oat, Wild plant response rating",wild oat (Avena fatua); 16 g ai/ha,0
same,"Oat, Wild plant response rating",wild oat (Avena fatua); 31 g ai/ha,0
same,"Plant response rating, Oat, Wild",wild oat (Avena fatua); 62 g ai/ha,0
same,"Plant response rating, Oat, Wild",wild oat (Avena fatua); 125 g ai/ha,0
same,Chickweed plant response rating,[5]; 16 g ai/ha,0
same,Chickweed plant response rating,[5]; 31 g ai/ha,0
same,"Plant response rating, Chickweed",[5]; 62 g ai/ha,5
same,"Plant response rating, Chickweed",[5]; 125 g ai/ha,5
same,"Plant response rating, Kochia",kochia (Kochia scoparia) [6]; [15],60
same,"Plant response rating, Kochia",kochia (Kochia scoparia) [6]; [16],80
same,"Plant response rating, Kochia",kochia (Kochia scoparia) [6]; [17],10
same,"Plant response rating, Kochia",kochia (Kochia scoparia) [6]; [18],60
same,"Plant response rating, Pigweed",[7]; [15],70
same,"Plant response rating, Pigweed",[7]; [16],100
same,"Plant response rating, Pigweed",[7]; [17],60
same,"Plant response rating, Pigweed",[7]; [18],100
same,"Plant response rating, Wheat",[8]; [15],0
same,"Plant response rating, Wheat",[8]; [16],20
same,"Plant response rating, Foxtail, Giant",[9]; [15],0
same,"Plant response rating, Foxtail, Giant",[9]; [16],10
same,"Plant response rating, Foxtail, Giant",[9]; [17],0
same,"Plant response rating, Foxtail, Giant",[9]; [18],50
same,"Plant response rating, Ragweed",[10]; [15],20
same,"Plant response rating, Ragweed",[10]; [16],60
same,"Plant response rating, Ragweed",[10]; [17],0
same,"Plant response rating, Ragweed",[10]; [18],50
same,"Plant response rating, Ryegrass, Italian",[11]; [15],0
same,"Plant response rating, Ryegrass, Italian",[11]; [16],50
same,"Plant response rating, Ryegrass, Italian",[11]; [17],20
same,"Plant response rating, Ryegrass, Italian",[11]; [18],50
same,"Plant response rating, Corn",corn (Zea mays); [15],0
same,"Plant response rating, Corn",corn (Zea mays); [16],0
same,"Plant response rating, Barnyardgrass",[12]; [15],0
same,"Plant response rating, Barnyardgrass",[12]; [16],0
same,"Plant response rating, Barnyardgrass",[12]; [17],0
same,"Plant response rating, Barnyardgrass",[12]; [18],10
same,"Plant response rating, Blackgrass",[13]; [15],40
same,"Plant response rating, Blackgrass",[13]; [16],60
same,"Plant response rating, Galium",[14]; [15],90
same,"Plant response rating, Galium",[14]; [16],100

# Source: patent US10131652B2, “Pyrimidinyloxy benzene derivatives as herbicides” (E. I. DU PONT DE NEMOURS AND COMPANY, priority 2014, dated 2018)
